In ChEMBL document CHEMBL1129680, “Discovery of novel, non-peptide HIV-1 protease inhibitors by pharmacophore searching” (J Med Chem, 1996):
Activity calls are given as the source filed them. No cut-off for these calls is given here.

Legend:
[1] = molecular target: Human immunodeficiency virus type 1 protease (Human immunodeficiency virus 1) (UniProt Q72874); assay: Evaluated for the inhibition of HIV-1 Protease.
[2] = molecular target: Human immunodeficiency virus type 1 protease (Human immunodeficiency virus 1) (UniProt Q72874)
[3] = Inhibition of compound against p7 nucleocapsid fluorescence intensity of the zinc finger ); NI = No inhibition; format: functional
Homo sapiens [4] = organism: Homo sapiens; assay: Cytotoxicitic activity […] in human PBLs cells; format: functional, cell-based
[5] = molecular target: Human immunodeficiency virus type 1 protease (Human immunodeficiency virus 1) (UniProt Q72874); remark: listed apart in the source
Description: Inhibitory concentration against HIV-1 Protease

[6] = molecular target: Human immunodeficiency virus type 1 integrase (Human immunodeficiency virus 1) (UniProt Q7ZJM1); assay: Inhibitory concentration against HIV-1 Integrase 3' chain transfer
Chain of Human immunodeficiency virus type 1 integrase (Human immunodeficiency virus 1) (Q7ZJM1 as listed by the source): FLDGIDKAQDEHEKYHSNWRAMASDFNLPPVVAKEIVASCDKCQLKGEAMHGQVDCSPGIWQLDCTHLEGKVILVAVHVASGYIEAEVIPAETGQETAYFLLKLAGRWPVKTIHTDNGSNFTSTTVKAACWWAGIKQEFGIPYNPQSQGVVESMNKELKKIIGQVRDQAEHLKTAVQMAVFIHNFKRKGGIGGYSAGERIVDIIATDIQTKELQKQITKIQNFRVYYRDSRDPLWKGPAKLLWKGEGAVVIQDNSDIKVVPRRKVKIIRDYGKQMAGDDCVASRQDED

[7] = molecular target: Human immunodeficiency virus type 1 reverse transcriptase (Human immunodeficiency virus 1) (UniProt Q72547); assay: Inhibitory concentration against Reverse Transcriptase
Homo sapiens [8] = organism: Homo sapiens; assay: Antiviral activity against HIV virus induced infection in human PBLs cells; format: functional, cell-based
[9] = molecular target: Human immunodeficiency virus type 1 integrase (Human immunodeficiency virus 1) (UniProt Q7ZJM1); assay: Inhibitory concentration against HIV-1 Integrase 3' chain processing

Row | Structure (SMILES) | ID50 [1] | other results
1 | Cc1cn([C@H]2C[C@H](N=[N+]=[N-])[C@@H](COP(=O)(O)OP(=O)(O)OP(=O)(O)O)O2)c(=O)[nH]c1=O | 54 µM | 
2 | CC(=O)NC(Cc1ccsc1)(C(=O)O)C(=O)O | 23 µM | 
3 | O=C1C2=C(C(=O)c3ccccc31)C(O)(S(=O)(=O)O)C(O)(S(=O)(=O)O)C1N=CC=CC21 (configuration not stated) | 2 µM | 
4 | CC(=O)OC1CCC2(C)C(C)C(C)CCC2(O)C1O (configuration not stated) | 16 µM | 
5 | O=c1oc2cccc(O)c2c(O)c1Cc1ccccc1 | 6 µM | 
6 | CCCCCCc1cc2c(cc1O)OC(=O)C(C(c1ccccc1)c1c(O)oc3cc(O)c(CCCCCC)cc3c1=O)C2O (configuration not stated) | 0.32 µM | 
7 | O=c1oc2ccccc2c(O)c1-c1ccccc1 | 42 µM | 
8 | CC(C)CC(NC(=O)OCc1ccccc1)(C(=O)O)C(=O)O | 17 µM | 
9 | O=C(Oc1ccccc1)N(CCO)C(c1ccccc1)C(O)c1ccccc1 (configuration not stated) | 32 µM | 
10 | CC(C)c1cccc(C(C)C)c1NC(=O)C(=O)CC(=O)CC(c1ccccc1)c1c(O)oc2ccccc2c1=O (configuration not stated) | 31 µM | 
11 | C[C@]12CCC(=O)C=C1CC[C@@H]1[C@@H]2[C@@H](O)C[C@@]2(C)[C@H]1CC[C@]2(O)C(=O)COC(=O)CCC(=O)O | 27 µM | 
12 | CCCC(=O)C1=C(O)C(Cc2c(O)c(C)c(O)c(C(=O)CCC)c2O)=C(O)C(C)(C)C1=O | 26 µM | 
13 | O=c1oc2c(-c3ccccc3)cccc2c(O)c1-c1ccccc1 | 13 µM | 
14 | O=c1c(C(c2ccc3c(c2)OCO3)c2c(O)oc3ccccc3c2=O)c(O)oc2ccccc12 | 30 µM | 
15 | O=c1c(C(c2ccc(C(c3c(O)oc4ccccc4c3=O)c3c(O)oc4ccccc4c3=O)cc2)c2c(O)oc3ccccc3c2=O)c(O)oc2ccccc12 | 1.7 µM | ID50 [2]: inactive; RFU [3]: inactive; IC50 (Homo sapiens [4]): 54.8 µM; ID50 [5]: 1.7 µM; ID50 [6]: 0.7 µM; ID50 [7]: 7.1 µM; EC50 (Homo sapiens [8]): 11.5 µM; ID50 [9]: 1.5 µM
16 | O=C1C(O)=C(C(C2=C(O)C(=O)c3ccccc3C2=O)c2ccc(C(C3=C(O)C(=O)c4ccccc4C3=O)C3=C(O)C(=O)c4ccccc4C3=O)cc2)C(=O)c2ccccc21 | 0.75 µM | 
17 | O=C1C(O)=C(C(C2=C(O)C(=O)c3ccccc3C2=O)c2ccc(Cl)cc2Cl)C(=O)c2ccccc21 | 24 µM | 
18 | CC1(C)CC[C@]2(C(=O)O)CC[C@]3(C)C(=CC[C@@H]4[C@@]5(C)C[C@H](O)[C@H](O)[C@@](C)(C(=O)O)[C@H]5CC[C@]43C)[C@@H]2C1 | 35 µM | 
19 | O=C1Oc2ccccc2C(O)C1Sc1c(O)oc2ccccc2c1=O (configuration not stated) | 21 µM | 
